Laboratory results as given in the supplement of paper PMC11451515.

How the values were obtained:
Details in all cases: 48 h
P12-Ichikawa [1] = assay: AUC of viability dose-response curve (% viability x log10 dose units); higher = less sensitive
Outline: (§1)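 Medium-adapted leukemia cells in 1536-well plates, at 500 or 1000 cells/well, were incubated for 48 h at 37°C with library compounds in DMSO at 11 threefold doses from 47 μM to 0.79 nM. CellTiter-Glo One luminescence normalised per plate to DMSO and cell-free wells was fitted with a four-parameter log-logistic model over log10 doses. Area under the curve was integrated from this fit by trapezoidal rule, with curves beyond full viability scaled and failed quality-control curves removed.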

SEM cells [2] = assay: as above
Outline: as §1

P12-Ichikawa [3] = assay: cell viability relative to DMSO control; higher = less cytotoxic
Outline: (§2)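 NOMO1 or SEM cells were plated at 500 cells/well and P12-Ichikawa cells at 1000 cells/well in 1536-well plates (5 μl), after each leukemia line had been adapted for at least four passages in each medium. Pin dosing delivered library compounds in DMSO at 11 threefold concentrations, 47 μM to 0.79 nM. CellTiter-Glo One luminescence was read after 48 h at 37°C. Viability is reported as a per-plate percentage of DMSO wells, with cell-free wells as background.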

SEM cells [4] = assay: as above
Outline: as §2

NOMO1 = assay: as above
Outline: as §2

[5] = RPMI 5 mM glucose + 10% dialyzed FBS
[6] = HPLM + 10% dialyzed FBS, 0.000781 µM
[7] = HPLM + 10% dialyzed FBS, 0.00234 µM
[8] = HPLM + 10% dialyzed FBS, 0.00702 µM
[9] = HPLM + 10% dialyzed FBS, 0.0211 µM
[10] = HPLM + 10% dialyzed FBS, 0.0632 µM
[11] = HPLM + 10% dialyzed FBS, 0.19 µM
[12] = HPLM + 10% dialyzed FBS, 0.569 µM
[13] = HPLM + 10% dialyzed FBS, 1.71 µM
[14] = HPLM + 10% dialyzed FBS, 5.12 µM
[15] = HPLM + 10% dialyzed FBS, 15.4 µM
[16] = HPLM + 10% dialyzed FBS, 46.1 µM
[17] = RPMI 5 mM glucose + 10% FBS, 0.000781 µM
[18] = RPMI 5 mM glucose + 10% FBS, 0.00234 µM
[19] = RPMI 5 mM glucose + 10% FBS, 0.00702 µM
[20] = RPMI 5 mM glucose + 10% FBS, 0.0211 µM
[21] = RPMI 5 mM glucose + 10% FBS, 0.0632 µM
[22] = RPMI 5 mM glucose + 10% FBS, 0.19 µM
[23] = RPMI 5 mM glucose + 10% FBS, 0.569 µM
[24] = RPMI 5 mM glucose + 10% FBS, 1.71 µM
[25] = RPMI 5 mM glucose + 10% FBS, 5.12 µM
[26] = RPMI 5 mM glucose + 10% FBS, 15.4 µM
[27] = RPMI 5 mM glucose + 10% FBS, 46.1 µM
[28] = RPMI 5 mM glucose + 10% dialyzed FBS, 0.000781 µM
[29] = RPMI 5 mM glucose + 10% dialyzed FBS, 0.00234 µM
[30] = RPMI 5 mM glucose + 10% dialyzed FBS, 0.00702 µM
[31] = RPMI 5 mM glucose + 10% dialyzed FBS, 0.0211 µM
[32] = RPMI 5 mM glucose + 10% dialyzed FBS, 0.0632 µM
[33] = RPMI 5 mM glucose + 10% dialyzed FBS, 0.19 µM
[34] = RPMI 5 mM glucose + 10% dialyzed FBS, 0.569 µM
[35] = RPMI 5 mM glucose + 10% dialyzed FBS, 1.71 µM
[36] = RPMI 5 mM glucose + 10% dialyzed FBS, 5.12 µM
[37] = RPMI 5 mM glucose + 10% dialyzed FBS, 15.4 µM
[38] = RPMI 5 mM glucose + 10% dialyzed FBS, 46.1 µM

## COC/1=C/C=C2\C(=C/C1=O)[C@H](CCC3=CC(=C(OC)C(=C23)OC)OC)NC(C)=O
P12-Ichikawa [1]; HPLM + 10% dialyzed FBS
  AUC of viability dose-response curve: 54.5
P12-Ichikawa [1]; RPMI 5 mM glucose + 10% FBS
  AUC of viability dose-response curve: 46.5
P12-Ichikawa [1]; [5]
  AUC of viability dose-response curve: 64.7
SEM cells [2]; HPLM + 10% dialyzed FBS
  AUC of viability dose-response curve: 80.3
SEM cells [2]; RPMI 5 mM glucose + 10% FBS
  AUC of viability dose-response curve: 49.8
SEM cells [2]; [5]
  AUC of viability dose-response curve: 54.6
P12-Ichikawa [3]; [6]
  cell viability: 45.1%
P12-Ichikawa [3]; [7]
  cell viability: 26.4%
P12-Ichikawa [3]; [8]
  cell viability: 14.5%
P12-Ichikawa [3]; [9]
  cell viability: 12.8%
P12-Ichikawa [3]; [10]
  cell viability: 10.9%
P12-Ichikawa [3]; [11]
  cell viability: 9.53%
P12-Ichikawa [3]; [12]
  cell viability: 6.89%
P12-Ichikawa [3]; [13]
  cell viability: 4.02%
P12-Ichikawa [3]; [14]
  cell viability: 3.71%
P12-Ichikawa [3]; [15]
  cell viability: 3.18%
P12-Ichikawa [3]; [16]
  cell viability: 1.19%
P12-Ichikawa [3]; [17]
  cell viability: 32.3%
P12-Ichikawa [3]; [18]
  cell viability: 19.7%
P12-Ichikawa [3]; [19]
  cell viability: 15.6%
P12-Ichikawa [3]; [20]
  cell viability: 10.3%
P12-Ichikawa [3]; [21]
  cell viability: 9.46%
P12-Ichikawa [3]; [22]
  cell viability: 7.35%
P12-Ichikawa [3]; [23]
  cell viability: 5.7%
P12-Ichikawa [3]; [24]
  cell viability: 4.23%
P12-Ichikawa [3]; [25]
  cell viability: 4.86%
P12-Ichikawa [3]; [26]
  cell viability: 3.24%
P12-Ichikawa [3]; [27]
  cell viability: 2.12%
P12-Ichikawa [3]; [28]
  cell viability: 41.3%
P12-Ichikawa [3]; [29]
  cell viability: 34.3%
P12-Ichikawa [3]; [30]
  cell viability: 21.5%
P12-Ichikawa [3]; [31]
  cell viability: 16%
P12-Ichikawa [3]; [32]
  cell viability: 13.2%
P12-Ichikawa [3]; [33]
  cell viability: 8.83%
P12-Ichikawa [3]; [34]
  cell viability: 8.91%
P12-Ichikawa [3]; [35]
  cell viability: 4.52%
P12-Ichikawa [3]; [36]
  cell viability: 4.83%
P12-Ichikawa [3]; [37]
  cell viability: 3.55%
P12-Ichikawa [3]; [38]
  cell viability: 1.22%
SEM cells [4]; [6]
  cell viability: 32.1%
SEM cells [4]; [7]
  cell viability: 25.8%
SEM cells [4]; [8]
  cell viability: 26.1%
SEM cells [4]; [9]
  cell viability: 23.7%
SEM cells [4]; [10]
  cell viability: 18.7%
SEM cells [4]; [11]
  cell viability: 14.5%
SEM cells [4]; [12]
  cell viability: 11%
SEM cells [4]; [13]
  cell viability: 11.5%
SEM cells [4]; [14]
  cell viability: 10.1%
SEM cells [4]; [15]
  cell viability: 10%
SEM cells [4]; [16]
  cell viability: 3.47%
SEM cells [4]; [17]
  cell viability: 19%
SEM cells [4]; [18]
  cell viability: 19.2%
SEM cells [4]; [19]
  cell viability: 15.9%
SEM cells [4]; [20]
  cell viability: 15.9%
SEM cells [4]; [21]
  cell viability: 12.3%
SEM cells [4]; [22]
  cell viability: 8.3%
SEM cells [4]; [23]
  cell viability: 5.66%
SEM cells [4]; [24]
  cell viability: 6.98%
SEM cells [4]; [25]
  cell viability: 5.01%
SEM cells [4]; [26]
  cell viability: 4.81%
SEM cells [4]; [27]
  cell viability: 2.96%
SEM cells [4]; [28]
  cell viability: 20.9%
SEM cells [4]; [29]
  cell viability: 20.5%
SEM cells [4]; [30]
  cell viability: 21.6%
SEM cells [4]; [31]
  cell viability: 21.8%
SEM cells [4]; [32]
  cell viability: 10.7%
SEM cells [4]; [33]
  cell viability: 8.08%
SEM cells [4]; [34]
  cell viability: 7.02%
SEM cells [4]; [35]
  cell viability: 5.24%
SEM cells [4]; [36]
  cell viability: 4.72%
SEM cells [4]; [37]
  cell viability: 4.63%
SEM cells [4]; [38]
  cell viability: 2.48%
NOMO1; [6]
  cell viability: 36.2%
NOMO1; [7]
  cell viability: 33.8%
NOMO1; [8]
  cell viability: 45.9%
NOMO1; [9]
  cell viability: 49.8%
NOMO1; [10]
  cell viability: 40.4%
NOMO1; [11]
  cell viability: 27%
NOMO1; [12]
  cell viability: 30.5%
NOMO1; [13]
  cell viability: 25.3%
NOMO1; [14]
  cell viability: 19.8%
NOMO1; [15]
  cell viability: 20%
NOMO1; [16]
  cell viability: 10.6%
NOMO1; [17]
  cell viability: 23.7%
NOMO1; [18]
  cell viability: 20%
NOMO1; [19]
  cell viability: 17.1%
NOMO1; [20]
  cell viability: 20.2%
NOMO1; [21]
  cell viability: 21.5%
NOMO1; [22]
  cell viability: 24.3%
NOMO1; [23]
  cell viability: 17.9%
NOMO1; [24]
  cell viability: 7.99%
NOMO1; [25]
  cell viability: 12.5%
NOMO1; [26]
  cell viability: 10.8%
NOMO1; [27]
  cell viability: 2.76%
NOMO1; [28]
  cell viability: 23.7%
NOMO1; [29]
  cell viability: 21.5%
NOMO1; [30]
  cell viability: 23.3%
NOMO1; [31]
  cell viability: 29.1%
NOMO1; [32]
  cell viability: 24.9%
NOMO1; [33]
  cell viability: 21.3%
NOMO1; [34]
  cell viability: 23.5%
NOMO1; [35]
  cell viability: 13.1%
NOMO1; [36]
  cell viability: 14.3%
NOMO1; [37]
  cell viability: 12.8%
NOMO1; [38]
  cell viability: 3.31%
